In ChEMBL document CHEMBL2203015, “Synthesis and biological evaluation of 5-aryloxypyrazole derivatives bearing a rhodanine-3-aromatic acid as potential antimicrobial agents” (Bioorg Med Chem Lett, 2012):
Converted amounts (≈) assume the structure as drawn.

What was measured:
Assay type in all cases: functional
Staphylococcus aureus [1] = assay: Antibacterial activity against Staphylococcus aureus KCTC 503 incubated for 24 hrs serial dilution method; settings: KCTC 503, 24 h
Staphylococcus aureus [2] = assay: Antibacterial activity against multidrug-resistant Staphylococcus aureus CCARM 3167 incubated for 24 hrs serial dilution method; settings: CCARM 3167, 24 h
Escherichia coli = assay: Antibacterial activity against Escherichia coli 1356 incubated for 24 hrs serial dilution method; settings: Escherichia coli, 1356, 24 h
Staphylococcus aureus [3] = assay: Antibacterial activity against quinolone-resistant Staphylococcus aureus CCARM 3505 incubated for 24 hrs serial dilution method; settings: CCARM 3505, 24 h
Staphylococcus aureus [4] = assay: Antibacterial activity against Staphylococcus aureus KCTC 209 incubated for 24 hrs serial dilution method; settings: KCTC 209, 24 h
Staphylococcus aureus [5] = assay: Antibacterial activity against multidrug-resistant Staphylococcus aureus CCARM 3506 incubated for 24 hrs serial dilution method; settings: CCARM 3506, 24 h
Staphylococcus aureus [6] = assay: Antibacterial activity against quinolone-resistant Staphylococcus aureus CCARM 3519 incubated for 24 hrs serial dilution method; settings: CCARM 3519, 24 h
Staphylococcus aureus [7] = assay: Antibacterial activity against Staphylococcus aureus RN 4220 incubated for 24 hrs serial dilution method; settings: RN 4220, 24 h

Structure (SMILES)	MIC (Staphylococcus aureus [1]) [µg/mL]	MIC (Staphylococcus aureus [2]) [µg/mL]	MIC (Escherichia coli) [µg/mL]	MIC (Staphylococcus aureus [3]) [µg/mL]	MIC (Staphylococcus aureus [4]) [µg/mL]	MIC (Staphylococcus aureus [5]) [µg/mL]	MIC (Staphylococcus aureus [6]) [µg/mL]	MIC (Staphylococcus aureus [7]) [µg/mL]
Cc1nn(-c2ccccc2)c(Oc2ccc(Br)cc2)c1/C=C1\SC(=S)N([C@@H](Cc2ccc(O)cc2)C(=O)O)C1=O	> 64	8 (≈ 12.6 µM)	> 64	8 (≈ 12.6 µM)	> 64	8 (≈ 12.6 µM)	8 (≈ 12.6 µM)	8 (≈ 12.6 µM)
Cc1nn(-c2ccccc2)c(Oc2c(Cl)cccc2Cl)c1/C=C1\SC(=S)N([C@@H](Cc2c[nH]c3ccccc23)C(=O)O)C1=O	> 64	4 (≈ 6.16 µM)	> 64	4 (≈ 6.16 µM)	> 64	4 (≈ 6.16 µM)	4 (≈ 6.16 µM)	4 (≈ 6.16 µM)
Cc1nn(-c2ccccc2)c(Oc2c(Cl)cccc2Cl)c1/C=C1\SC(=S)N([C@@H](Cc2ccc(O)cc2)C(=O)O)C1=O	> 64	8 (≈ 12.8 µM)	> 64	16 (≈ 25.5 µM)	> 64	8 (≈ 12.8 µM)	16 (≈ 25.5 µM)	16 (≈ 25.5 µM)
COc1ccccc1Oc1c(/C=C2\SC(=S)N([C@@H](Cc3c[nH]c4ccccc34)C(=O)O)C2=O)c(C)nn1-c1ccccc1	> 64	8 (≈ 13.1 µM)	> 64	8 (≈ 13.1 µM)	> 64	8 (≈ 13.1 µM)	8 (≈ 13.1 µM)	16 (≈ 26.2 µM)
Cc1nn(-c2ccccc2)c(Oc2cccc(C(F)(F)F)c2)c1/C=C1\SC(=S)N([C@@H](Cc2ccc(O)cc2)C(=O)O)C1=O	> 64	16 (≈ 25.6 µM)	> 64	32 (≈ 51.1 µM)	> 64	16 (≈ 25.6 µM)	32 (≈ 51.1 µM)	16 (≈ 25.6 µM)
CCn1cc(C(=O)O)c(=O)c2cc(F)c(N3CCNCC3)cc21 [NORFLOXACIN]	2 (≈ 6.26 µM)	8 (≈ 25.1 µM)	> 16	> 64	2 (≈ 6.26 µM)	4 (≈ 12.5 µM)	> 64	2 (≈ 6.26 µM)
Cc1nn(-c2ccccc2)c(Oc2ccccc2)c1/C=C1\SC(=S)N([C@@H](Cc2c[nH]c3ccccc23)C(=O)O)C1=O	> 64	8 (≈ 13.8 µM)	> 64	8 (≈ 13.8 µM)	> 64	8 (≈ 13.8 µM)	8 (≈ 13.8 µM)	8 (≈ 13.8 µM)
COc1ccc(Oc2c(/C=C3\SC(=S)N([C@@H](Cc4c[nH]c5ccccc45)C(=O)O)C3=O)c(C)nn2-c2ccccc2)cc1	> 64	4 (≈ 6.55 µM)	> 64	8 (≈ 13.1 µM)	> 64	4 (≈ 6.55 µM)	8 (≈ 13.1 µM)	8 (≈ 13.1 µM)
Cc1nn(-c2ccccc2)c(Oc2ccccc2)c1/C=C1\SC(=S)N([C@@H](Cc2ccc(O)cc2)C(=O)O)C1=O	> 64		> 64		> 64			> 32
Cc1cccc(Oc2c(/C=C3\SC(=S)N([C@@H](Cc4c[nH]c5ccccc45)C(=O)O)C3=O)c(C)nn2-c2ccccc2)c1	> 64	4 (≈ 6.73 µM)	> 64	8 (≈ 13.5 µM)	> 64	4 (≈ 6.73 µM)	8 (≈ 13.5 µM)	4 (≈ 6.73 µM)
COc1ccc(Oc2c(/C=C3\SC(=S)N([C@@H](Cc4ccc(O)cc4)C(=O)O)C3=O)c(C)nn2-c2ccccc2)cc1	> 64		> 64		> 64			> 32
COc1ccccc1Oc1c(/C=C2\SC(=S)N([C@@H](Cc3ccc(O)cc3)C(=O)O)C2=O)c(C)nn1-c1ccccc1	> 64		> 64		> 64			> 32
Cc1nn(-c2ccccc2)c(Oc2ccccc2Cl)c1/C=C1\SC(=S)N([C@@H](Cc2ccc(O)cc2)C(=O)O)C1=O	> 64		> 64		> 64			> 32
Cc1nn(-c2ccccc2)c(Oc2ccc(F)cc2)c1/C=C1\SC(=S)N([C@@H](Cc2ccc(O)cc2)C(=O)O)C1=O	> 64		> 64		> 64			> 32
